{"source": "patent US20160205982A1", "about": "“LIFE ENHANCING BEVERAGES” (REOXCYN DISCOVERIES GROUP, INC., priority 2013, published 2016)", "key": {"[1]": {"system": "phosphorylated proteins (extra-nuclear fraction)", "experiment": "Western blot of protein phosphorylation in extra-nuclear fraction of HMVEC-L", "format": "cell-based, human", "conditions": "H2O2 treatment", "protocol": "(§1) 8. A Western Blot analysis was done on extra-nuclear and intra-nuclear fractions, separated by differential centrifugation, of serum starved HMVEC-L cell cultures exposed to <1% ASEA compared with a positive hydrogen peroxide control to determine phosphorylation events (oxidant action) in the extra-nuclear fraction and NRF2 (antioxidant transcription) in the intra-nuclear fraction at 0, 30, 60, 90 and 120 min. intervals.\n(§2) Experimental Methods for Western Blot Validation of NRF2 Nuclear Accumulation: HMVEC-L were treated with 1% ASEA, nuclear extracts were separated through centrifugal differentiation from the extra-nuclear cytosol at 30, 60 and 120 min and subjected to Western Blot analysis for NRF2. In the Western blot experiment the extra-nuclear fraction was probed for phosphorylated proteins using a combination of anti-phospho serine, threonine and tyrosine antibodies. Virtually all cellular processes are regulated by posttranslational modifications and protein phosphorylation is a prevalent mechanism. Observable changes in protein phosphorylation can lead to a mechanistic understanding of the cellular processes perturbed by ASEA and provide a defined endpoint to better define dose-dependent regulation of cell function by ASEA in vitro, as well as provide a potential candidate molecular marker that may be used to provide in vitro-in vivo correlates. […]"}, "NRF2": {"system": "NRF2", "experiment": "Western blot of NRF2 in nuclear extracts of HMVEC-L", "format": "cell-based, human", "conditions": "H2O2 30 min, positive control", "protocol": "as §1, §2"}}, "data": [{"smiles": "OO", "note": "[H2O2, Hydrogen peroxide]", "values": [{"measurement": "phosphorylation of the protein detected in extra-nuclear fraction", "setting": "[1]", "result": "marked increase"}, {"measurement": "NRF2 levels in nuclear extracts", "setting": "NRF2", "result": "did not increase"}]}]}
